{"source": "patent US9125913B2", "about": "“Bcl-2-selective apoptosis-inducing agents for the treatment of cancer and immune diseases” (AbbVie Inc., priority 2008, dated 2015)", "system": "GST-Bcl-2", "experiment": "TR-FRET binding assay, Bcl-2", "conditions": "TR-FRET Ki values", "outline": "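Ki values come from Wang's competitive-binding equation applied to TR-FRET signal (excitation 340/35 nm; emission 520/525 nm F-Bak peptide, 495/510 nm Tb antibody). Protein, probe and antibody incubated with compound 3 h at room temperature; dilution series began at 50 μM as 2× stock in 10% DMSO.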", "data": [{"compound": "CC1(C)CC(c2ccc(Cl)cc2)=C(CN2CCN(c3ccc(C(=O)NS(=O)(=O)c4ccc(NCC5CCOCC5)c([N+](=O)[O-])c4)c(Oc4ccc5[nH]ccc5c4)c3)CC2)CO1", "note": "[EXAMPLE 182, 4-(4-{[4-(4-chlorophenyl)-6,6-dimethyl-5,6-dihydro-2H-pyran-3-yl]methyl}piperazin-1-yl)-2-(1H-indol-5-yloxy)-N-({3-nitro-4-[(tetrahydro-2H-pyran-4-ylmethyl)amino]phenyl}sulfonyl)benzamide]", "values": [{"measurement": "Binding selectivity ratio (Bcl-XL Ki/Bcl-2 Ki)", "value": ">7595.8"}]}, {"compound": "CC1(C)CCC(CN2CCN(c3ccc(C(=O)NS(=O)(=O)c4ccc(OCC5CCOCC5)c([N+](=O)[O-])c4)c(Oc4cccc5[nH]ccc45)c3)CC2)=C(c2ccc(Cl)cc2)C1", "note": "[EXAMPLE 289, 4-(4-{[2-(4-chlorophenyl)-4,4-dimethylcyclohex-1-en-1-yl]methyl}piperazin-1-yl)-2-(1H-indol-4-yloxy)-N-{[3-nitro-4-(tetrahydro-2H-pyran-4-ylmethoxy)phenyl]sulfonyl}benzamide]", "values": [{"measurement": "Binding selectivity ratio (Bcl-XL Ki/Bcl-2 Ki)", "value": ">5917.7"}]}, {"compound": "CC1(C)CCC(CN2CCN(c3ccc(C(=O)NS(=O)(=O)c4cnc(OCC5CCOCC5)c(Br)c4)c(Oc4ccc5[nH]ccc5c4)c3)CC2)=C(c2ccc(Cl)cc2)C1", "note": "[EXAMPLE 329, N-{[5-bromo-6-(tetrahydro-2H-pyran-4-ylmethoxy)pyridin-3-yl]sulfonyl}-4-(4-{[2-(4-chlorophenyl)-4,4-dimethylcyclohex-1-en-1-yl]methyl}piperazin-1-yl)-2-(1H-indol-5-yloxy)benzamide]", "values": [{"measurement": "Binding selectivity ratio (Bcl-XL Ki/Bcl-2 Ki)", "value": ">2319.5"}]}, {"compound": "CC1(C)CCC(CN2CCN(c3ccc(C(=O)NS(=O)(=O)c4ccc(OCCC5CCOCC5)c([N+](=O)[O-])c4)c(Oc4cccc5[nH]ccc45)c3)CC2)=C(c2ccc(Cl)cc2)C1", "note": "[EXAMPLE 314, 4-(4-{[2-(4-chlorophenyl)-4,4-dimethylcyclohex-1-en-1-yl]methyl}piperazin-1-yl)-2-(1H-indol-4-yloxy)-N-{[3-nitro-4-(2-tetrahydro-2H-pyran-4-ylethoxy)phenyl]sulfonyl}benzamide]", "values": [{"measurement": "Binding selectivity ratio (Bcl-XL Ki/Bcl-2 Ki)", "value": ">215.3"}]}, {"compound": "CC1(C)CCC(CN2CCN(c3ccc(C(=O)NS(=O)(=O)c4ccc(NC[C@H]5CC[C@H](O)CC5)c([N+](=O)[O-])c4)c(Oc4ccc5[nH]ccc5c4)c3)CC2)=C(c2ccc(Cl)cc2)C1", "note": "[EXAMPLE 310, Trans-4-(4-{[2-(4-chlorophenyl)-4,4-dimethylcyclohex-1-en-1-yl]methyl}piperazin-1-yl)-N-[(4-{[(4-hydroxycyclohexyl)methyl]amino}-3-nitrophenyl)sulfonyl]-2-(1H-indol-5-yloxy)benzamide]", "values": [{"measurement": "Binding selectivity ratio (Bcl-XL Ki/Bcl-2 Ki)", "value": ">13469.4"}]}, {"compound": "O=C(NS(=O)(=O)c1ccc(N2C(=O)C3CCC3C2=O)cc1)c1ccc(N2CCN(Cc3ccccc3-c3ccc(Cl)cc3)CC2)cc1Oc1ccccc1", "note": "(centres unmarked) [Example 28, 4-{4-[(4′-chloro-1,1′-biphenyl-2-yl)methyl]piperazin-1-yl}-N-{[4-(2,4-dioxo-3-azabicyclo[3.2.0]hept-3-yl)phenyl]sulfonyl}-2-phenoxybenzamide]", "values": [{"measurement": "Binding selectivity ratio (Bcl-XL Ki/Bcl-2 Ki)", "value": ">19.6"}]}, {"compound": "CN1CCC(O)(CNc2ccc(S(=O)(=O)NC(=O)c3ccc(N4CCN(CC5=C(c6ccc(Cl)cc6)CC(C)(C)CC5)CC4)cc3Oc3ccc4[nH]ccc4c3)cc2[N+](=O)[O-])CC1", "note": "[EXAMPLE 183, 4-(4-{[2-(4-chlorophenyl)-4,4-dimethylcyclohex-1-en-1-yl]methyl}piperazin-1-yl)-N-[(4-{[(4-hydroxy-1-methylpiperidin-4-yl)methyl]amino}-3-nitrophenyl)sulfonyl]-2-(1H-indol-5-yloxy)benzamide]", "values": [{"measurement": "Binding selectivity ratio (Bcl-XL Ki/Bcl-2 Ki)", "value": 240.5}]}, {"compound": "CC1(C)CCC(CN2CCN(c3ccc(C(=O)NS(=O)(=O)c4ccc(OC5CCN(C6CCOCC6)CC5)c([N+](=O)[O-])c4)c(Oc4ccc5[nH]ccc5c4)c3)CC2)=C(c2ccc(Cl)cc2)C1", "note": "[EXAMPLE 389, 4-(4-{[2-(4-chlorophenyl)-4,4-dimethylcyclohex-1-en-1-yl]methyl}piperazin-1-yl)-2-(1H-indol-5-yloxy)-N-({3-nitro-4-[(1-tetrahydro-2H-pyran-4-ylpiperidin-4-yl)oxy]phenyl}sulfonyl)benzamide]", "values": [{"measurement": "Binding selectivity ratio (Bcl-XL Ki/Bcl-2 Ki)", "value": 685.5}]}, {"compound": "C[C@@H](c1ccccc1-c1ccc(Cl)cc1)N1CCN(c2ccc(C(=O)NS(=O)(=O)c3ccc(NCC4CCOCC4)c([N+](=O)[O-])c3)c(Oc3cccc4[nH]ccc34)c2)CC1", "note": "[EXAMPLE 256, 4-{4-[(1S)-1-(4′-chloro-1,1′-biphenyl-2-yl)ethyl]piperazin-1-yl}-2-(1H-indol-4-yloxy)-N-({3-nitro-4-[(tetrahydro-2H-pyran-4-ylmethyl)amino]phenyl}sulfonyl)benzamide]", "values": [{"measurement": "Binding selectivity ratio (Bcl-XL Ki/Bcl-2 Ki)", "value": ">5519.8"}]}, {"compound": "CC1(C)CCC(CN2CCN(c3ccc(C(=O)NS(=O)(=O)c4ccc(NCC56CC7CC(C5)C(O)[C@H](C7)C6)c([N+](=O)[O-])c4)c(Oc4ccc5[nH]ccc5c4)c3)CC2)=C(c2ccc(Cl)cc2)C1", "note": "(stereo partly drawn) [EXAMPLE 321, 4-(4-{[2-(4-chlorophenyl)-4,4-dimethylcyclohex-1-en-1-yl]methyl}piperazin-1-yl)-N-{[4-({[(3R)-4-hydroxy-1-adamantyl]methyl}amino)-3-nitrophenyl]sulfonyl}-2-(1H-indol-5-yloxy)benzamide]", "values": [{"measurement": "Binding selectivity ratio (Bcl-XL Ki/Bcl-2 Ki)", "value": ">957.9"}]}, {"compound": "CC1(C)CCC(c2ccc(Cl)cc2)=C(CN2CCN(c3ccc(C(=O)NS(=O)(=O)c4ccc(NCCCN5CCOCC5)c([N+](=O)[O-])c4)c(Oc4ccccc4)c3)CC2)C1", "note": "[Example 19, 4-(4-{[2-(4-chlorophenyl)-5,5-dimethylcyclohex-1-en-1-yl]methyl}piperazin-1-yl)-N-({4-[(3-morpholin-4-ylpropyl)amino]-3-nitrophenyl}sulfonyl)-2-phenoxybenzamide]", "values": [{"measurement": "Binding selectivity ratio (Bcl-XL Ki/Bcl-2 Ki)", "value": 23.6}]}, {"compound": "CC1(C)CCC(CN2CCN(c3ccc(C(=O)NS(=O)(=O)c4ccc(NC5CCN(CCCO)CC5)c([N+](=O)[O-])c4)c(Oc4ccc5[nH]ccc5c4)c3)CC2)=C(c2ccc(Cl)cc2)C1", "note": "[EXAMPLE 197, 4-(4-{[2-(4-chlorophenyl)-4,4-dimethylcyclohex-1-en-1-yl]methyl}piperazin-1-yl)-N-[(4-{[1-(3-hydroxypropyl)piperidin-4-yl]amino}-3-nitrophenyl)sulfonyl]-2-(1H-indol-5-yloxy)benzamide]", "values": [{"measurement": "Binding selectivity ratio (Bcl-XL Ki/Bcl-2 Ki)", "value": 193}]}, {"compound": "CC(c1ccccc1-c1ccc(Cl)cc1)N1CCN(c2ccc(C(=O)NS(=O)(=O)c3ccc(NN4CCN(C)CC4)c([N+](=O)[O-])c3)c(Oc3cccc4[nH]ccc34)c2)CC1", "note": "(centres unmarked) [EXAMPLE 217, 4-{4-[1-(4′-chloro-1,1′-biphenyl-2-yl)ethyl]piperazin-1-yl}-2-(1H-indol-4-yloxy)-N-({4-[(4-methylpiperazin-1-yl)amino]-3-nitrophenyl}sulfonyl)benzamide]", "values": [{"measurement": "Binding selectivity ratio (Bcl-XL Ki/Bcl-2 Ki)", "value": 171.1}]}, {"compound": "CC1(C)CCC(CN2CCN(c3ccc(C(=O)NS(=O)(=O)c4cnc(OCC5CCOCC5)c(C#N)c4)c(Oc4ccc5[nH]ccc5c4)c3)CC2)=C(c2ccc(Cl)cc2)C1", "note": "[EXAMPLE 333, 4-(4-{[2-(4-chlorophenyl)-4,4-dimethylcyclohex-1-en-1-yl]methyl}piperazin-1-yl)-N-{[5-cyano-6-(tetrahydro-2H-pyran-4-ylmethoxy)pyridin-3-yl]sulfonyl}-2-(1H-indol-5-yloxy)benzamide]", "values": [{"measurement": "Binding selectivity ratio (Bcl-XL Ki/Bcl-2 Ki)", "value": ">7415.7"}]}, {"compound": "COCCOCCNc1ccc(S(=O)(=O)NC(=O)c2ccc(N3CCN(CC4=C(c5ccc(Cl)cc5)CC(C)(C)CC4)CC3)cc2Oc2ccc3[nH]ccc3c2)cc1[N+](=O)[O-]", "note": "[EXAMPLE 298, 4-(4-{[2-(4-chlorophenyl)-4,4-dimethylcyclohex-1-en-1-yl]methyl}piperazin-1-yl)-2-(1H-indol-5-yloxy)-N-[(4-{[2-(2-methoxyethoxy)ethyl]amino}-3-nitrophenyl)sulfonyl]benzamide]", "values": [{"measurement": "Binding selectivity ratio (Bcl-XL Ki/Bcl-2 Ki)", "value": 1415.7}]}, {"compound": "CC1(C)CCC(CN2CCN(c3ccc(C(=O)NS(=O)(=O)c4ccc(OCC5CCOCC5)c(C(N)=O)c4)c(Oc4ccc5[nH]ccc5c4)c3)CC2)=C(c2ccc(Cl)cc2)C1", "note": "[EXAMPLE 357, N-{[3-(aminocarbonyl)-4-(tetrahydro-2H-pyran-4-ylmethoxy)phenyl]sulfonyl}-4-(4-{[2-(4-chlorophenyl)-4,4-dimethylcyclohex-1-en-1-yl]methyl}piperazin-1-yl)-2-(1H-indol-5-yloxy)benzamide]", "values": [{"measurement": "Binding selectivity ratio (Bcl-XL Ki/Bcl-2 Ki)", "value": ">493.9"}]}, {"compound": "CC1(C)CCC(CN2CCN(c3ccc(C(=O)NS(=O)(=O)c4cnc(OCC5CCOCC5)c(-c5nccs5)c4)c(Oc4ccc5[nH]ccc5c4)c3)CC2)=C(c2ccc(Cl)cc2)C1", "note": "[EXAMPLE 331, 4-(4-{[2-(4-chlorophenyl)-4,4-dimethylcyclohex-1-en-1-yl]methyl}piperazin-1-yl)-2-(1H-indol-5-yloxy)-N-{[6-(tetrahydro-2H-pyran-4-ylmethoxy)-5-(1,3-thiazol-2-yl)pyridin-3-yl]sulfonyl}benzamide]", "values": [{"measurement": "Binding selectivity ratio (Bcl-XL Ki/Bcl-2 Ki)", "value": ">79.8"}]}, {"compound": "4-(4-{[2-(4-chlorophenyl)-4,4-dimethylcyclohex-1-en-1-yl]methyl}piperazin-1-yl)-N-{[4-({[Cis-4-hydroxy-1-adamantyl]methyl}amino)-3-nitrophenyl]sulfonyl}-2-(1H-indol-5-yloxy)benzamide [EXAMPLE 322]", "values": [{"measurement": "Binding selectivity ratio (Bcl-XL Ki/Bcl-2 Ki)", "value": ">3591.4"}]}, {"compound": "O=C(NS(=O)(=O)c1ccc(NCCn2nccn2)c([N+](=O)[O-])c1)c1ccc(N2CCN(Cc3ccccc3-c3ccc(Cl)cc3)CC2)cc1Oc1ccccc1", "note": "[Example 165, 4-{4-[(4′-chloro-1,1′-biphenyl-2-yl)methyl]piperazin-1-yl}-N-[(3-nitro-4-{[2-(2H-1,2,3-triazol-2-yl)ethyl]amino}phenyl)sulfonyl]-2-phenoxybenzamide]", "values": [{"measurement": "Binding selectivity ratio (Bcl-XL Ki/Bcl-2 Ki)", "value": 44.5}]}, {"compound": "CC(C)[C@H](CO)Nc1ccc(S(=O)(=O)NC(=O)c2ccc(N3CCN(CC4=C(c5ccc(Cl)cc5)CC(C)(C)CC4)CC3)cc2Oc2ccc3[nH]ccc3c2)cc1[N+](=O)[O-]", "note": "[EXAMPLE 371, 4-(4-{[2-(4-chlorophenyl)-4,4-dimethylcyclohex-1-en-1-yl]methyl}piperazin-1-yl)-N-[(4-{[(1R)-1-(hydroxymethyl)-2-methylpropyl]amino}-3-nitrophenyl)sulfonyl]-2-(1H-indol-5-yloxy)benzamide]", "values": [{"measurement": "Binding selectivity ratio (Bcl-XL Ki/Bcl-2 Ki)", "value": ">78.8"}]}]}
